Here are results for two molecules from ChEMBL document CHEMBL3124792, “Discovery and preclinical characterization of the cyclopropylindolobenzazepine BMS-791325, a potent allosteric inhibitor of the hepatitis C virus NS5B polymerase” (J Med Chem, 2014).

≈ marks a conversion by molar mass, not a printed value.

As usually defined, the EC50 is the concentration that produces a half-maximal response. By solubility is commonly meant the dissolved amount per volume that the medium holds. The low end stands for little dissolved substance, the high end for much dissolved substance. By CC50 is commonly meant the concentration that lowers cell viability or growth by half.

In data set [1] the target is T1, Nuclear receptor subfamily 1 group I member 2 (Homo sapiens, UniProt O75469).
T1 sequence (O75469 whole entry): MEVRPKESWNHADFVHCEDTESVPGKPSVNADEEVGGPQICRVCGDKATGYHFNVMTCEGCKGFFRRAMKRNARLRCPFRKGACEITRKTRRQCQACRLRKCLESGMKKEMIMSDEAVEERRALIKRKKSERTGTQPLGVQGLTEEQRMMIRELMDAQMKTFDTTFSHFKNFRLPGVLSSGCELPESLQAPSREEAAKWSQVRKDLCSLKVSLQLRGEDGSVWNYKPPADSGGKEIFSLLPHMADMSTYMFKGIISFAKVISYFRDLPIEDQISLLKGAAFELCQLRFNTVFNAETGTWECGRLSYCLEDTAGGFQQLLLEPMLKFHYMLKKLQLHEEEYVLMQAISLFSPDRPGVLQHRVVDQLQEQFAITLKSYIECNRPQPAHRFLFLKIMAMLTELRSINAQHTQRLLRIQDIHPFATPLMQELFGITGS
Description: Transactivation of human PXR expressed in human HepG2 cells by luciferase reporter gene assay. It is filed as cell-based. (In a reporter assay the amount or activity of a reporter protein is the signal.)

Data set [2] has as its target Voltage-gated inwardly rectifying potassium channel KCNH2 (Homo sapiens, UniProt Q12809). Description: Inhibition of human ERG by fluorescence-based thallium flux assay.
A further data set deals with Cytochrome P450 2C19 (Homo sapiens, UniProt P33261). Briefly: Inhibition of CYP2C19 in human liver microsomes after 30 mins in presence of NADPH. It is filed as ADME.
Cytochrome P450 2C19, sequence (P33261 whole entry): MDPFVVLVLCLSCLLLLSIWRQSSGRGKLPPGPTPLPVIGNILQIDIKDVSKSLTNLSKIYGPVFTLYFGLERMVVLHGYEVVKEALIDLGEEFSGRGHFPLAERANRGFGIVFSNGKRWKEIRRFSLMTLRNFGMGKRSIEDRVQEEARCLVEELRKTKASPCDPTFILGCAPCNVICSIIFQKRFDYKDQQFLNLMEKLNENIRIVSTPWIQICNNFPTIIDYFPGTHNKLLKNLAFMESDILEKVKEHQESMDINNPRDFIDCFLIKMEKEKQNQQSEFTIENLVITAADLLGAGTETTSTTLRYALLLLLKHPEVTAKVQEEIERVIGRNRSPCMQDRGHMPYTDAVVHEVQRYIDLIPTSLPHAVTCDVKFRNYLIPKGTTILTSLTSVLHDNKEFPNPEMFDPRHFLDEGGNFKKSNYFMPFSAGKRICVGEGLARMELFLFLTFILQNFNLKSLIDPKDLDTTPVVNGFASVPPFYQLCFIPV
The target of another data set is T2, Cytochrome P450 1A2 (Homo sapiens, UniProt P05177).
T2 sequence (P05177 whole entry): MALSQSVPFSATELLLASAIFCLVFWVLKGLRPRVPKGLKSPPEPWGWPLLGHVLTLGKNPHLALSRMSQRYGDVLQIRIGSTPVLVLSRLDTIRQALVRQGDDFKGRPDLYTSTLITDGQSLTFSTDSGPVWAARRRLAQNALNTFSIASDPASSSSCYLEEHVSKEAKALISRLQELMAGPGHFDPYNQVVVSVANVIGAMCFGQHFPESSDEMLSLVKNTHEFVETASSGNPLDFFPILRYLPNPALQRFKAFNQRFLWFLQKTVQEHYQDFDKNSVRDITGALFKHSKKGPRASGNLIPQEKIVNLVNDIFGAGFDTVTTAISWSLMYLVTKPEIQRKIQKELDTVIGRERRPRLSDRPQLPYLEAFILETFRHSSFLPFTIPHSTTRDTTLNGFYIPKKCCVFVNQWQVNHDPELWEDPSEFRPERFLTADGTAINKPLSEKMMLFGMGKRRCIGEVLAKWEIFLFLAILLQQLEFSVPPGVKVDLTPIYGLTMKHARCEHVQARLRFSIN
Description: Inhibition of CYP1A2 in human liver microsomes after 30 mins in presence of NADPH. Type of data set: ADME.

A further data set concerns the target Cytochrome P450 3A4 (Homo sapiens, UniProt P08684). Briefly: Inhibition of CYP3A4 in human liver microsomes using benzyloxyresorufin as substrate after 30 mins in presence of NADPH. It is filed as ADME.
A further data set concerns the target Cytochrome P450 2D6 (Homo sapiens, UniProt P10635). Briefly: Inhibition of CYP2D6 in human liver microsomes after 30 mins in presence of NADPH. Type of data set: ADME. In general terms: Liver microsomes are vesicles of endoplasmic reticulum, rich in cytochrome P450 enzymes.
Data set [3] has as its system Hepatitis C virus. Description: Antiviral activity against Hepatitis C virus H77c genotype 1a infected in human HuH7 cells after 3 days by FRET assay. Type of data set: functional, organism-based, Hepacivirus hominis. To be noted: genotype 1a H77, Huh-7, 72 h.
A further data set concerns the target Cytochrome P450 2C9 (Homo sapiens, UniProt P11712). Description: Inhibition of CYP2C9 in human liver microsomes after 30 mins in presence of NADPH. Type of data set: ADME.
The test system of the next data set is HepG2. Briefly: Cytotoxicity against human HepG2 cells. It is filed as cell-based.
In data set [4] the test system is Hepatitis C virus. Briefly: Antiviral activity against Hepatitis C virus Con1 genotype 1b infected in human HuH7 cells after 3 days by FRET assay. Type of data set: functional, organism-based, Hepacivirus hominis. To be noted: isolate Con1, Huh-7, 72 h.
A short description of data set [5]: Permeability of the compound at pH 7.4 by PAMPA. It is filed as physicochemical. The settings on record: read-out: permeability. (In general: The PAMPA barrier holds no transporters, so it reflects passive diffusion.)
Data set [6] can be described thus: Solubility of the compound in amorphous form in phosphate buffer at pH 6.5. It is filed as physicochemical.
Data set [7] addresses Sodium channel protein type 5 subunit alpha (Homo sapiens, UniProt Q14524). Description: Inhibition of human NaV1.5 expressed in HEK293 cells by fluorescence-based thallium flux assay. It is filed as cell-based.
Data set [8] can be described thus: Cytotoxicity against human HuH7 cells by Alamar blue assay. It is filed as cell-based. The settings on record: Huh-7 cells.
Data set [9] relates to Hepatitis C virus. Description: Antiviral activity against Hepatitis C virus Con1 genotype 1b infected in human HuH7 cells after 3 days by FRET assay in presence of 40% human serum. It is filed as functional, organism-based, Hepacivirus hominis. The settings on record: isolate Con1, Huh-7, 72 h.
A further data set has as its target T3, PXR (NR1I2) (Homo sapiens, UniProt O75469).
T3 sequence (O75469 whole entry): T1 sequence (O75469 whole entry)
Description: Transactivation of human PXR expressed in human HepG2 cells by luciferase reporter gene assay relative to control. Type of data set: cell-based. The settings on record: HepG2 cells expressing human PXR, read-out: %max.

In data set [10] the test system is Hepatitis C virus. Briefly: Ratio of EC50 for Hepatitis C virus Con1 genotype 1b in presence of 40% human serum to EC50 for Hepatitis C virus Con1 genotype 1b. Type of data set: functional, Hepacivirus hominis, isolate Con1.

Voltage-gated inwardly rectifying potassium channel KCNH2, sequence (Q12809 whole entry): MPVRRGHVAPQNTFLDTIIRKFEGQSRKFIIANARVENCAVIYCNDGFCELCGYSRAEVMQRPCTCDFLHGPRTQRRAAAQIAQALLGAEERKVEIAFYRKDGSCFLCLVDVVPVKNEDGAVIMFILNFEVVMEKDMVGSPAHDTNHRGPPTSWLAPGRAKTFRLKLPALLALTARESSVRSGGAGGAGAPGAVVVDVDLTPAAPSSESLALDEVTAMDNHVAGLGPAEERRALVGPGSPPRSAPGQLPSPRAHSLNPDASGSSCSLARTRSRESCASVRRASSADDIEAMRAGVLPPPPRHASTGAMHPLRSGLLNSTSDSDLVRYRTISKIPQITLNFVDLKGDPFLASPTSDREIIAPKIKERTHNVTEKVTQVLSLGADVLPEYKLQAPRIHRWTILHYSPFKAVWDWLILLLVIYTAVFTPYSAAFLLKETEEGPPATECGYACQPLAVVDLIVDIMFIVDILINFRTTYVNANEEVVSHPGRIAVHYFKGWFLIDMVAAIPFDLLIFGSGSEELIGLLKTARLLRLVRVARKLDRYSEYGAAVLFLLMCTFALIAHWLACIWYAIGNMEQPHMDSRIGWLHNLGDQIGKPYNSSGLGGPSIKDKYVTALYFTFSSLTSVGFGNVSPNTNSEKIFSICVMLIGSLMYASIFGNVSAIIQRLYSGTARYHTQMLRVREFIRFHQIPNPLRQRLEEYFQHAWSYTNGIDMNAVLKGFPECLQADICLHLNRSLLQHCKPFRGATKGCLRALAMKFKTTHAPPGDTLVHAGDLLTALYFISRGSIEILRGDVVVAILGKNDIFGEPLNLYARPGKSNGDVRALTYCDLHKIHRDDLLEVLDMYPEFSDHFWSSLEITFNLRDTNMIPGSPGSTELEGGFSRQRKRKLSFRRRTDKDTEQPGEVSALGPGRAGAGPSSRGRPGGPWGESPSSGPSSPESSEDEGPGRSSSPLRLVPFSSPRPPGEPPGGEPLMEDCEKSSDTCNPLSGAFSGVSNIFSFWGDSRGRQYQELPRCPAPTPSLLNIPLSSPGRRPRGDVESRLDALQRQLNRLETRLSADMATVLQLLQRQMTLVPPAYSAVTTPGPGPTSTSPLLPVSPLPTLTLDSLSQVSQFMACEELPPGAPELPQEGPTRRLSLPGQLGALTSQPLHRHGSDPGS
Sodium channel protein type 5 subunit alpha, sequence (Q14524 whole entry): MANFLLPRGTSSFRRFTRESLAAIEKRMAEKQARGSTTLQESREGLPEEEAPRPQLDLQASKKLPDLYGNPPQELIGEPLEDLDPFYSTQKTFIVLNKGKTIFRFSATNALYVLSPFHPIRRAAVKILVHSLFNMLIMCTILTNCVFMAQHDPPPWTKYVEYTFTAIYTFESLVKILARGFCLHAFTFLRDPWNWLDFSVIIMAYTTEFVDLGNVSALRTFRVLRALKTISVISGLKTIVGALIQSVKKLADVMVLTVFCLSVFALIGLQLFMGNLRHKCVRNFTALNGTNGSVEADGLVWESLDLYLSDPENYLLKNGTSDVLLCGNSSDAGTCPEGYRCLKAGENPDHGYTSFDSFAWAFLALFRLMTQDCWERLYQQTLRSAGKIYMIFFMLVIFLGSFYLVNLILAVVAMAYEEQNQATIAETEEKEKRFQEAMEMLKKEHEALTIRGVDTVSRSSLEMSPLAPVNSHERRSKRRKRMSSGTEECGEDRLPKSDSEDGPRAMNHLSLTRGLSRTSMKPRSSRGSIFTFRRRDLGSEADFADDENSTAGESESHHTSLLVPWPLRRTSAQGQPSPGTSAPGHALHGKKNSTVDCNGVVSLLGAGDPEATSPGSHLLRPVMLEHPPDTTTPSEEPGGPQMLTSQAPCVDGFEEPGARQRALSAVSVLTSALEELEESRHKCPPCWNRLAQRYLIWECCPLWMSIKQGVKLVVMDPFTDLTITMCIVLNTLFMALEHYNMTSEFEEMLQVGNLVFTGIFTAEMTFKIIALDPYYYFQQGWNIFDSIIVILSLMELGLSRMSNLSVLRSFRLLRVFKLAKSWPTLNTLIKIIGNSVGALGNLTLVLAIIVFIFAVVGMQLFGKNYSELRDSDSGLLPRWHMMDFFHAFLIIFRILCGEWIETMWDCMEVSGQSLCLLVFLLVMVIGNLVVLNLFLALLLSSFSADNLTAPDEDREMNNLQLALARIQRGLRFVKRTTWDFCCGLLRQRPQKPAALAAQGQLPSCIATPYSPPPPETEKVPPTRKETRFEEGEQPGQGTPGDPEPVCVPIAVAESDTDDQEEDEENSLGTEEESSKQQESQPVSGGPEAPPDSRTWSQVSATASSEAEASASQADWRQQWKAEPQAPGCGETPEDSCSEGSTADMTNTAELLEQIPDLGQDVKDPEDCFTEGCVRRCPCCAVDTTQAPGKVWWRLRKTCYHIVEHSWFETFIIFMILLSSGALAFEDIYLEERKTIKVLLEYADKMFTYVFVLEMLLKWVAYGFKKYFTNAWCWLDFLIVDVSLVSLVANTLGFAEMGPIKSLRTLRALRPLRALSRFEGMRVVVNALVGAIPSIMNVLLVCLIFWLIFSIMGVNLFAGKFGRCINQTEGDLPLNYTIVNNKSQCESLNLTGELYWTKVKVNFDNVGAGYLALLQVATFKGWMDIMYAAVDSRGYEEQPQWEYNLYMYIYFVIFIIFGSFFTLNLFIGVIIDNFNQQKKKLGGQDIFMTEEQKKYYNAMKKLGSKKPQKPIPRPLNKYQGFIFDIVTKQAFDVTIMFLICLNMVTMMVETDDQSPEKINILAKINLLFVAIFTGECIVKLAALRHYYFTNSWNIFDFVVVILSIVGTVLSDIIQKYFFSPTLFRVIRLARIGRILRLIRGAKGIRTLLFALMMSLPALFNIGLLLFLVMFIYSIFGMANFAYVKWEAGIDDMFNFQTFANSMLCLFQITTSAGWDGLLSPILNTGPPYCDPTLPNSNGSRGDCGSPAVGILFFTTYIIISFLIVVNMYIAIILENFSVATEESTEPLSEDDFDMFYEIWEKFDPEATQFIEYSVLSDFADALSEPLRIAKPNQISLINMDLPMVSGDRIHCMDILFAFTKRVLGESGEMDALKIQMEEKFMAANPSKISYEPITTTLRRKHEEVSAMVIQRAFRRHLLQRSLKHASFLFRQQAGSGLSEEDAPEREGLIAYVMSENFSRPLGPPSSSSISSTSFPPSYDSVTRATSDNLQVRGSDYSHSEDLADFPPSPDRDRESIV
Cytochrome P450 3A4, sequence (P08684 whole entry): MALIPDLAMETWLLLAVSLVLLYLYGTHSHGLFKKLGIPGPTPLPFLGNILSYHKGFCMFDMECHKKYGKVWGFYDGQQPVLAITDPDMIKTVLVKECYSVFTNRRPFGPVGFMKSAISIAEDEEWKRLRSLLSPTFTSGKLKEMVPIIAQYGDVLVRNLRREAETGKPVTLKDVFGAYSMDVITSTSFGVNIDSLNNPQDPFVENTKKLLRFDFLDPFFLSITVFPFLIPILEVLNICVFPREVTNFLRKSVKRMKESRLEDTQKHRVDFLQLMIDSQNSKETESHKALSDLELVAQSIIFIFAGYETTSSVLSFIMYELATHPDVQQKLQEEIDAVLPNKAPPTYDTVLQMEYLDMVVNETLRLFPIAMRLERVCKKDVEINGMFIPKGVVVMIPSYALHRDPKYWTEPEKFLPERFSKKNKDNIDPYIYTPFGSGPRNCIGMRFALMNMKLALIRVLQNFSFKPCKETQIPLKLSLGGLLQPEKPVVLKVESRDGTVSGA
Cytochrome P450 2C9, sequence (P11712 whole entry): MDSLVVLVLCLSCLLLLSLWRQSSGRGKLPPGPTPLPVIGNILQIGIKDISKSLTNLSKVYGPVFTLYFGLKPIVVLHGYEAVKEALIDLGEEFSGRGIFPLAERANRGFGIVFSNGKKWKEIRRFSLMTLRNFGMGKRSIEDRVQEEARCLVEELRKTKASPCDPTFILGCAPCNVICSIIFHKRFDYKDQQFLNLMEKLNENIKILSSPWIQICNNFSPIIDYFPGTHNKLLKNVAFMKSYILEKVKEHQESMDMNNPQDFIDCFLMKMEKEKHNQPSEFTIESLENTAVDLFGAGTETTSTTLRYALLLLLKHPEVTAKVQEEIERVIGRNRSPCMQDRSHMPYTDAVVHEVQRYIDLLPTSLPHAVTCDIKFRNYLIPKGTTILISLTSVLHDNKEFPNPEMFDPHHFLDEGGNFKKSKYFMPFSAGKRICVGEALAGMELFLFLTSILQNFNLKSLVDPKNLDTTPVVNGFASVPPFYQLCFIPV

For `CCN1CC2CC(C1)N2C(=O)[C@]12C[C@H]1c1cc(OC)ccc1-c1c(C3CCCCC3)c3ccc(C(=O)NS(=O)(=O)N(C)C)cc3n1C2`, the EC50 in data set [1] was over 50 µM; in [2], 6 µM; on Cytochrome P450 2C19 it was over 40 µM; on Cytochrome P450 1A2, over 40 µM; on Cytochrome P450 3A4 it was 9 µM; on Cytochrome P450 2D6, over 40 µM. Besides, the EC50 with Hepatitis C virus [3] is 0.004 µM; at Cytochrome P450 2C9 it was over 40 µM; in the data set with HepG2, 19 µM; in the data set on Hepatitis C virus [4], 0.004 µM; in data set [7] it was 29 µM. Also, in [5], the Papp worked out at 27 ×10⁻⁶ cm/s. The molecule also yielded a solubility in data set [6] of 450 µg/mL (≈ 682 µM).

In turn, `COC[C@H]1CN(C(=O)[C@]23C[C@H]2c2cc(OC)ccc2-c2c(C4CCCCC4)c4ccc(C(=O)NS(=O)(=O)N(C)C)cc4n2C3)CCO1` came in with a CC50 in data set [8] of over 10 µM. The EC50 was over 50 µM in data set [1], 0.036 µM with Hepatitis C virus [9], 0.006 µM in the data set with Hepatitis C virus [3] and 0.012 µM in the data set with Hepatitis C virus [4]. At PXR (NR1I2), the Emax stood at 12%. Also, the “Ratio EC50” value in the data set with Hepatitis C virus [10] was found to be 3.
